# Reference: PubChem BioAssay AID1259408 (Genetic Toxicology Data Bank (GENE-TOX), 2018)
# Calls of active or inactive are those of the source. How the calls were made is not given here.
# Tested on: GENE-TOX genotoxicity assays, various organisms and cells
# Experiment: GENE-TOX mutagenicity studies
# Conditions: for call: Assay Type: In vivo carcinogenicity studies
# [1] = Species/Cell Type: Nonhuman, Assay Code: CCG+, Evaluation Type: Evaluation A (Pre-1980)
# [2] = Species/Cell Type: Escherichia coli polA (W3119 vs P3478), Assay Type: Rec-assay, DNA effects (bacterial DNA repair), Assay Code: RE1-, Evaluation Type: Evaluation A (Pre-1980)
# [3] = Species/Cell Type: Mammalian polychromatic erythrocytes, Assay Type: Micronucleus test, chromosome aberrations, Assay Code: MNTT, Evaluation Type: Evaluation B (Post-1980)
# [4] = Species/Cell Type: Salmonella typhimurium (one or more of the five standard strains: TA98, TA100, TA1535, TA1537, and TA1538), Assay Type: Histidine reverse gene mutation, Ames assay, Assay Code: SAL-, Evaluation Type: Evaluation A (Pre-1980)
# [5] = Species/Cell Type: Nonhuman, Assay Type: Sister-chromatid exchange (SCE) in vitro, Assay Code: SC2+D, Dose Response: With dose response, Evaluation Type: Evaluation A (Pre-1980)
# [6] = Species/Cell Type: Nonhuman, Assay Type: Sister-chromatid exchange (SCE) in vivo, Assay Code: SC3T, Evaluation Type: Evaluation B (Post-1980)
# [7] = Species/Cell Type: Mammalian polychromatic erythrocytes, Assay Type: Micronucleus test, chromosome aberrations, Assay Code: MNT+, Evaluation Type: Evaluation B (Post-1980)
# [8] = Species/Cell Type: Drosophila melanogaster, Assay Type: Sex-linked recessive lethal gene mutation, Assay Code: SRL+, Evaluation Type: Evaluation A (Pre-1980)
# [9] = Species/Cell Type: Salmonella typhimurium, Assay Type: Forward and reverse gene mutation, body fluid assay, Assay Code: BFU+, Evaluation Type: Evaluation A (Pre-1980)
# [10] = Species/Cell Type: Drosophila melanogaster, Sex: Male, Assay Type: Heritable translocation test, chromosome aberrations, Assay Code: DHTT, Evaluation Type: Evaluation A (Pre-1980)
# [11] = Species/Cell Type: Human lymphocytes, Assay Type: Sister-chromatid exchange (SCE) in vitro, Assay Code: SCLT, Evaluation Type: Evaluation B (Post-1980)
# [12] = Species/Cell Type: Human, Assay Type: Sister-chromatid exchange (SCE) in vitro, Assay Code: SC1T, Evaluation Type: Evaluation B (Post-1980)
# [13] = Species/Cell Type: Human, Assay Type: Sister-chromatid exchange (SCE) in vitro, Assay Code: SC1+, Evaluation Type: Evaluation B (Post-1980)
smiles,measurement,setting,value
O=C1OC(CN2CCOCC2)CN1/N=C/c1ccc([N+](=O)[O-])o1 (stereo unspecified),mutagenic call,"Species/Cell Type: Escherichia coli WP2, Assay Type: Tryptophan reverse gene mutation, Assay Code: WP2+, Evaluation Type: Evaluation A (Pre-1980)",active; positive
same,mutagenic call,"Species/Cell Type: Escherichia coli WP2 UVRA, Assay Type: Tryptophan reverse gene mutation, Assay Code: WPU+, Evaluation Type: Evaluation A (Pre-1980)",active; positive
same,mutagenic call,"Species/Cell Type: Escherichia coli WP2 UVRA, Assay Type: Tryptophan reverse gene mutation, Assay Code: WPU+D, Dose Response: With dose response, Evaluation Type: Evaluation A (Pre-1980)",active; positive
same,call,[1],active; positive
c1cc2ccc3cc4c(c5ccc(c1)c2c35)CCC1OC41 (stereo unspecified),mutagenic call,"Species/Cell Type: Chinese hamster lung (V79) cells, Assay Type: Forward gene mutation at the HPRT or ouabain locus, Assay Code: V79-, Evaluation Type: Evaluation A (Pre-1980)",inactive; negative
same,mutagenic call,"Species/Cell Type: Mouse prostate cells, Assay Type: Cell transformation, Assay Code: CTM+, Evaluation Type: Evaluation A (Pre-1980)",active; positive
same,mutagenic call,"Species/Cell Type: Salmonella typhimurium (one or more of the five standard strains: TA98, TA100, TA1535, TA1537, and TA1538), Assay Type: Histidine reverse gene mutation, Ames assay, Assay Code: SAL+, Evaluation Type: Evaluation A (Pre-1980)",active; positive
O=[N+]([O-])c1ccnc2ccccc12,mutagenic call,[2],inactive; negative
Cc1c2ccccc2c(C)c2c1ccc1cc(O)ccc12,mutagenic call,"Species/Cell Type: Chinese hamster lung (V79) cells, Assay Type: Forward gene mutation at the HPRT or ouabain locus, Assay Code: V79-*, Activation: With metabolic activation, Evaluation Type: Evaluation A (Pre-1980)",inactive; negative
same,call,"Species/Cell Type: Nonhuman, Assay Code: CCGT, Evaluation Type: Evaluation A (Pre-1980)",no conclusion
CN(C)C(CSC(N)=O)CSC(N)=O,mutagenic call,[3],no conclusion
same,mutagenic call,"Species/Cell Type: Nonhuman bone marrow, Assay Type: Chromosome aberrations, in vivo, Assay Code: CY#-, Evaluation Type: Evaluation A (Pre-1980)",inactive; negative
Cc1cc(Cl)cc2c1C(=O)/C(=C1\Sc3cc(Cl)cc(C)c3C1=O)S2,mutagenic call,[4],inactive; negative
CCN(CCCl)CCCNc1c2ccccc2nc2c1ccc1ccccc12,mutagenic call,"Species/Cell Type: Chinese hamster ovary (CHO) cells, Assay Type: Forward gene mutation at the HPRT locus, Assay Code: CHO+D, Dose Response: With dose response, Evaluation Type: Evaluation A (Pre-1980)",active; positive
Cc1c(N(C)C)c(=O)n(-c2ccccc2)n1C,mutagenic call,"Species/Cell Type: Nonhuman, Assay Type: Sister-chromatid exchange (SCE) in vitro, Assay Code: SC2-, Evaluation Type: Evaluation A (Pre-1980)",inactive; negative
CN1CCN(c2ccc3nc(-c4ccc5nc(-c6ccc(O)cc6)[nH]c5c4)[nH]c3c2)CC1,mutagenic call,[5],active; positive
same,mutagenic call,"Species/Cell Type: Nonhuman, Assay Type: Sister-chromatid exchange (SCE) in vivo, Assay Code: SC3-, Evaluation Type: Evaluation A (Pre-1980)",inactive; negative
same,mutagenic call,[6],no conclusion
[Cl][Cu],mutagenic call,"Species/Cell Type: Bacillus subtilis (H17 vs M45), Assay Type: Rec-assay, spot test, DNA effects (bacterial DNA repair), Assay Code: REW-, Evaluation Type: Evaluation A (Pre-1980)",inactive; negative
Oc1cccc(O)c1O,mutagenic call,"Species/Cell Type: Allium cepa, Assay Type: Chromosome aberrations, Assay Code: ALC+, Evaluation Type: Evaluation A (Pre-1980)",active; positive
same,mutagenic call,[7],active; positive
OC(c1ccccc1)C(c1ccccc1)c1ccccc1 (stereo unspecified),mutagenic call,"Species/Cell Type: Escherichia coli polA (W3119 vs P3478), Assay Type: Rec-assay, DNA effects (bacterial DNA repair), Assay Code: RE1T, Evaluation Type: Evaluation A (Pre-1980)",no conclusion
C/[N+]([O-])=N/CO,mutagenic call,"Species/Cell Type: Chinese hamster lung (V79) cells, Assay Type: Forward gene mutation at the HPRT or ouabain locus, Assay Code: V79+, Evaluation Type: Evaluation A (Pre-1980)",active; positive
same,mutagenic call,[8],active; positive
same,call,[1],active; positive
same,mutagenic call,[9],active; positive
same,mutagenic call,"Species/Cell Type: Syrian hamster embryo (SHE) cells, Assay Type: Cell transformation, clonal assay, Assay Code: CTC+, Evaluation Type: Evaluation A (Pre-1980)",active; positive
O=C1NS(=O)(=O)c2ccccc21,mutagenic call,"Species/Cell Type: Allium cepa, Assay Type: Chromosome aberrations, Assay Code: ALC+D, Dose Response: With dose response, Evaluation Type: Evaluation A (Pre-1980)",active; positive
same,mutagenic call,[8],active; positive
same,mutagenic call,[10],no conclusion
same,mutagenic call,"Species/Cell Type: Escherichia coli polA (W3110 vs P3478), Assay Type: Rec-assay, DNA effects (bacterial DNA repair), Assay Code: RE2-, Evaluation Type: Evaluation A (Pre-1980)",inactive; negative
same,mutagenic call,[2],inactive; negative
same,mutagenic call,"Species/Cell Type: Human lymphocytes, Assay Type: Sister-chromatid exchange (SCE) in vitro, Assay Code: SCL+D, Dose Response: With dose response, Evaluation Type: Evaluation A (Pre-1980)",active; positive
same,mutagenic call,[11],no conclusion
same,mutagenic call,"Species/Cell Type: Human, Assay Type: Sister-chromatid exchange (SCE) in vitro, Assay Code: SC1+D, Dose Response: With dose response, Evaluation Type: Evaluation A (Pre-1980)",active; positive
same,mutagenic call,[12],no conclusion
same,mutagenic call,[3],no conclusion
same,mutagenic call,"Species/Cell Type: Mouse (C3H/10T1/2) cells, Assay Type: Cell transformation, Assay Code: CTH-, Evaluation Type: Evaluation A (Pre-1980)",inactive; negative
same,mutagenic call,"Species/Cell Type: Mouse lymphoma (L5178Y) cells, Assay Type: Forward gene mutation at the thymidine kinase (TK) locus, chromosome aberrations, Assay Code: L51T, Evaluation Type: Evaluation A (Pre-1980)",no conclusion
same,mutagenic call,"Species/Cell Type: Mouse, Sex: Male, Assay Type: Sperm morphology, Assay Code: SPI-, Evaluation Type: Evaluation A (Pre-1980)",inactive; negative
same,mutagenic call,"Species/Cell Type: Neurospora crassa, Assay Type: Aneuploidy, chromosome aberrations, Assay Code: NEN-, Evaluation Type: Evaluation A (Pre-1980)",inactive; negative
same,mutagenic call,[5],active; positive
same,mutagenic call,"Species/Cell Type: Nonhuman, Assay Type: Sister-chromatid exchange (SCE) in vivo, Assay Code: SC3+D, Dose Response: With dose response, Evaluation Type: Evaluation B (Post-1980)",active; positive
same,mutagenic call,"Species/Cell Type: Rodents, Sex: Male, Assay Type: Dominant lethal test, Assay Code: DLT+, Evaluation Type: Evaluation A (Pre-1980)",active; positive
same,mutagenic call,"Species/Cell Type: Saccharomyces cerevisiae, Assay Type: Aneuploidy, chromosome aberrations, Assay Code: YEN+, Evaluation Type: Evaluation A (Pre-1980)",active; positive
same,mutagenic call,"Species/Cell Type: Saccharomyces cerevisiae, Assay Type: Mitotic recombination or gene conversion, Assay Code: YEC+, Evaluation Type: Evaluation A (Pre-1980)",active; positive
same,mutagenic call,"Species/Cell Type: Saccharomyces cerevisiae, Assay Type: Mitotic recombination or gene conversion, Assay Code: YEH+/-*, Activation: With metabolic activation, Evaluation Type: Evaluation A (Pre-1980)","inactive; positive without activation, negative with activation"
same,mutagenic call,"Species/Cell Type: Saccharomyces cerevisiae, Assay Type: Reverse gene mutation, Assay Code: YER+, Evaluation Type: Evaluation A (Pre-1980)",active; positive
same,mutagenic call,[4],inactive; negative
same,mutagenic call,[9],active; positive
same,mutagenic call,"Species/Cell Type: Salmonella typhimurium, Assay Type: Forward and reverse gene mutation, host-mediated assay, Assay Code: HMA+, Evaluation Type: Evaluation A (Pre-1980)",active; positive
same,mutagenic call,"Species/Cell Type: Syrian hamster embryo (SHE) cells, Assay Type: Cell transformation, clonal assay, Assay Code: CTC-, Evaluation Type: Evaluation A (Pre-1980)",inactive; negative
Cc1c(C)c2c(c(C)c1O)CC[C@@](C)(CCC[C@H](C)CCC[C@H](C)CCCC(C)C)O2,mutagenic call,[11],no conclusion
same,mutagenic call,[12],no conclusion
C[C@@]1(CO)[C@H](O)CC[C@@]2(C)[C@H]1CC[C@H]1C[C@@H]3C[C@@]12CC[C@]3(O)CO,mutagenic call,"Species/Cell Type: Human lymphocytes, Assay Type: Sister-chromatid exchange (SCE) in vitro, Assay Code: SCL+, Evaluation Type: Evaluation B (Post-1980)",active; positive
same,mutagenic call,[13],active; positive
same,mutagenic call,"Species/Cell Type: Nonhuman, Assay Type: Sister-chromatid exchange (SCE) in vitro, Assay Code: SC2+D, Dose Response: With dose response, Evaluation Type: Evaluation B (Post-1980)",active; positive
Nc1nncs1,mutagenic call,"Species/Cell Type: Drosophila melanogaster, Assay Type: Aneuploidy, sex chromosome gain, chromosome aberrations, Assay Code: DAG+M, Evaluation Type: Evaluation A (Pre-1980)",active; positive
same,mutagenic call,"Species/Cell Type: Drosophila melanogaster, Assay Type: Aneuploidy, whole sex chromosome loss, chromosome aberrations, Assay Code: DAC+M, Evaluation Type: Evaluation A (Pre-1980)",active; positive
same,mutagenic call,[10],no conclusion
Cc1cccc(O)c1,mutagenic call,"Species/Cell Type: Allium cepa, Assay Type: Chromosome aberrations, Assay Code: ALCT, Evaluation Type: Evaluation A (Pre-1980)",no conclusion
same,mutagenic call,[11],no conclusion
same,mutagenic call,[13],active; positive
same,mutagenic call,[6],no conclusion
c1ccc2c(c1)ccc1cc3ccc4ccccc4c3cc12,mutagenic call,"Species/Cell Type: Salmonella typhimurium (one or more of the five standard strains: TA98, TA100, TA1535, TA1537, and TA1538), Assay Type: Histidine reverse gene mutation, Ames assay, Assay Code: SAL+*, Activation: With metabolic activation, Evaluation Type: Evaluation A (Pre-1980)",active; positive
CCCCOCC1CO1 (stereo unspecified),mutagenic call,[7],active; positive
